Source: publication PMC3044726, “Identification of Human IKK-2 Inhibitors of Natural Origin (Part I): Modeling of the IKK-2 Kinase Domain, Virtual Screening and Activity Assays” (PLoS ONE, 2011)
Read-outs that look alike come from different tables or passages of the source.

Target: T1, hIKK-2 (Homo sapiens, UniProt O14920)
T1 construct: gene IKBKB
T1 sequence (O14920 1-756): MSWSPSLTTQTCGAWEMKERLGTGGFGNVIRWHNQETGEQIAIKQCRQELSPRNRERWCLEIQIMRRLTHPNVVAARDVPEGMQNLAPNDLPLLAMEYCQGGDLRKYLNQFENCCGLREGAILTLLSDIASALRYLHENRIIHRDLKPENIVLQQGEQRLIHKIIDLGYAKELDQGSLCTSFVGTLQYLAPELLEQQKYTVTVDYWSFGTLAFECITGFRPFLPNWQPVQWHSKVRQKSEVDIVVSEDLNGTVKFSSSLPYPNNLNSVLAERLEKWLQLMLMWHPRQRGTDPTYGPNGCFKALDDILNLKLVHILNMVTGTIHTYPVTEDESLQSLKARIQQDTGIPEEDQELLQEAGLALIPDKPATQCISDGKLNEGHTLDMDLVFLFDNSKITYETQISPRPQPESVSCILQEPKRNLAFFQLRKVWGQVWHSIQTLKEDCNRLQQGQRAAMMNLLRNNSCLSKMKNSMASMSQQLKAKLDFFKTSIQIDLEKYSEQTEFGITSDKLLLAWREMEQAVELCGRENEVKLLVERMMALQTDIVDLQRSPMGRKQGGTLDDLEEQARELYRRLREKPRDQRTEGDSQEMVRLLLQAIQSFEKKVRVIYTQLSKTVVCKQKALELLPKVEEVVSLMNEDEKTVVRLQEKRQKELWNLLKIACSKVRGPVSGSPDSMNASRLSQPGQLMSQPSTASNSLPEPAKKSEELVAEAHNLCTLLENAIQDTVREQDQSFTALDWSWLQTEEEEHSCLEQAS
Experiment: K-LISA IKKβ ELISA kinase assay with GST-IκBα substrate
Format: biochemical

| Compound | IC50 (read-out: IC50) [mM] | IC50 [mM] |
| --- | --- | --- |
| OC[C@@H]1CCCN2CCCC[C@H]12 [ZINC01669260, lupinine] | 3.32 |  |
| COCc1c(CN)cnc(C)c1N [ZINC03683886] |  | 2.07 |
| CCOc1ccc2nc3cc(N)ccc3c(N)c2c1 [ZINC03871389, ethacridine] | 0.184 |  |
